Earlier results in patent publication US9789102B2, “H3 receptor antagonist for use in the treatment of alzheimer's disease” (SANOFI, priority 2012, dated 2017).

System: protein tau hyperphosphorylation
Settings: 2-week treatment; TAPP transgenic mice; histopathological studies; cited from earlier work

C[C@@H]1CCCN1CCc1cc2cc(-c3ccc(C#N)cc3)ccc2o1 [ABT-239]
protein tau hyperphosphorylation in the spinal cord and hippocampus: effect
